Data: PubChem BioAssay (NCI)
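Five compound concentrations were applied to cells in 96-well plates for 48 hours; endpoints were derived by simple linear interpolation of the resulting dose-response curve. GI50 is the concentration that inhibits growth by half. TGI: concentration producing complete growth inhibition.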

Assays:
Experiment in all cases: NCI anticancer screen, dose series, 48 h
BT-549 breast = test system: BT-549 breast
HOP-62 NSCLC = test system: HOP-62 NSCLC
786-0 renal = test system: 786-0 renal
HOP-92 NSCLC = test system: HOP-92 NSCLC
HL-60(TB) leukemia = test system: HL-60(TB) leukemia
SK-MEL-28 melanoma = test system: SK-MEL-28 melanoma
SN12C renal = test system: SN12C renal
SK-MEL-5 melanoma = test system: SK-MEL-5 melanoma
TK-10 renal = test system: TK-10 renal
PC-3 prostate = test system: PC-3 prostate
SR leukemia = test system: SR leukemia
UO-31 renal = test system: UO-31 renal
SNB-19 CNS = test system: SNB-19 CNS
NCI-H522 lung = test system: NCI-H522 lung
RXF 393 renal = test system: RXF 393 renal
HS 578T breast = test system: HS 578T breast
M14 melanoma = test system: M14 melanoma
OVCAR-4 ovarian = test system: OVCAR-4 ovarian
IGROV1 ovarian = test system: IGROV1 ovarian
SF-295 CNS = test system: SF-295 CNS
NCI/ADR-RES ovarian = test system: NCI/ADR-RES ovarian
SW-620 colon = test system: SW-620 colon
CAKI-1 renal = test system: CAKI-1 renal
DU-145 prostate = test system: DU-145 prostate
SK-MEL-2 melanoma = test system: SK-MEL-2 melanoma
MCF7 breast = test system: MCF7 breast
MDA-MB-435 = test system: MDA-MB-435
RPMI-8226 leukemia = test system: RPMI-8226 leukemia
OVCAR-5 ovarian = test system: OVCAR-5 ovarian
HCT-116 colon = test system: HCT-116 colon
T-47D breast = test system: T-47D breast
KM12 colon = test system: KM12 colon
A549 NSCLC = test system: A549 NSCLC
NCI-H460 lung = test system: NCI-H460 lung
HCC-2998 colon = test system: HCC-2998 colon
OVCAR-8 ovarian = test system: OVCAR-8 ovarian
SF-268 CNS = test system: SF-268 CNS
ACHN renal = test system: ACHN renal
HCT-15 colon = test system: HCT-15 colon
SF-539 CNS = test system: SF-539 CNS
UACC-257 melanoma = test system: UACC-257 melanoma
COLO 205 colon = test system: COLO 205 colon
SK-OV-3 ovarian = test system: SK-OV-3 ovarian
K-562 leukemia = test system: K-562 leukemia
EKVX NSCLC = test system: EKVX NSCLC
LOX IMVI melanoma = test system: LOX IMVI melanoma
UACC-62 melanoma = test system: UACC-62 melanoma
OVCAR-3 ovarian = test system: OVCAR-3 ovarian
NCI-H23 lung = test system: NCI-H23 lung
MDA-MB-231 breast = test system: MDA-MB-231 breast
U251 CNS = test system: U251 CNS
MOLT-4 leukemia = test system: MOLT-4 leukemia
NCI-H226 lung = test system: NCI-H226 lung
HT29 colon = test system: HT29 colon
SNB-75 CNS = test system: SNB-75 CNS
MALME-3M melanoma = test system: MALME-3M melanoma
CCRF-CEM leukemia = test system: CCRF-CEM leukemia
A498 renal = test system: A498 renal

In the case of Clc1ccc(Nc2nc3ccccc3c3occc23)cc1, the GI50 (BT-549 breast) was 8.28 µM, the TGI (BT-549 breast) was 15.2 µM and the GI50 (HOP-62 NSCLC) was 9.19 µM. It also gave a TGI (HOP-62 NSCLC) of 17.3 µM, a GI50 (786-0 renal) of 8.33 µM and a TGI (786-0 renal) of 15.1 µM. It also gave a GI50 (HOP-92 NSCLC) of 6.53 µM, a TGI (HOP-92 NSCLC) of 13.2 µM and a GI50 (HL-60(TB) leukemia) of 24.4 µM. It also gave a TGI (HL-60(TB) leukemia) of over 50 µM, a GI50 (SK-MEL-28 melanoma) of 6.39 µM and a TGI (SK-MEL-28 melanoma) of 14.4 µM. It also gave a GI50 (SN12C renal) of 10.9 µM, a TGI (SN12C renal) of 22.6 µM and a GI50 (SK-MEL-5 melanoma) of 7.52 µM. For the same compound, the TGI (SK-MEL-5 melanoma) was 14.1 µM, the GI50 (TK-10 renal) was 4.99 µM and the TGI (TK-10 renal) was 11 µM. For the same compound, the GI50 (PC-3 prostate) was 7 µM, the TGI (PC-3 prostate) was 13.5 µM and the GI50 (SR leukemia) was 23.2 µM. It also gave a TGI (SR leukemia) of over 50 µM, a GI50 (UO-31 renal) of 7.91 µM and a TGI (UO-31 renal) of 22.6 µM. It also gave a GI50 (SNB-19 CNS) of 8.78 µM, a TGI (SNB-19 CNS) of 16.2 µM and a GI50 (NCI-H522 lung) of 9.83 µM. It also gave a TGI (NCI-H522 lung) of 20.3 µM, a GI50 (RXF 393 renal) of 8.4 µM and a TGI (RXF 393 renal) of 16.9 µM. The GI50 (HS 578T breast) was 6.95 µM, the TGI (HS 578T breast) was 16.3 µM and the GI50 (M14 melanoma) was 8.46 µM. For the same compound, the TGI (M14 melanoma) was 16.9 µM, the GI50 (OVCAR-4 ovarian) was 8.7 µM and the TGI (OVCAR-4 ovarian) was 19.8 µM. For the same compound, the GI50 (IGROV1 ovarian) was 10.2 µM, the TGI (IGROV1 ovarian) was 27.3 µM and the GI50 (SF-295 CNS) was 6.86 µM. It also gave a TGI (SF-295 CNS) of 13.3 µM, a GI50 (NCI/ADR-RES ovarian) of 8.7 µM and a TGI (NCI/ADR-RES ovarian) of 15.6 µM. The GI50 (SW-620 colon) was 8.04 µM, the TGI (SW-620 colon) was 14.8 µM and the GI50 (CAKI-1 renal) was 3.07 µM. The TGI (CAKI-1 renal) was 10.2 µM, the GI50 (DU-145 prostate) was 7.01 µM and the TGI (DU-145 prostate) was 13.5 µM. It also gave a GI50 (SK-MEL-2 melanoma) of 9.53 µM, a TGI (SK-MEL-2 melanoma) of 21.7 µM and a GI50 (MCF7 breast) of 10.9 µM. The TGI (MCF7 breast) was over 50 µM, the GI50 (MDA-MB-435) was 7.5 µM and the TGI (MDA-MB-435) was 14.1 µM. The GI50 (RPMI-8226 leukemia) was 11.3 µM, the TGI (RPMI-8226 leukemia) was 27.4 µM and the GI50 (OVCAR-5 ovarian) was 9.4 µM. It also gave a TGI (OVCAR-5 ovarian) of 18.4 µM, a GI50 (HCT-116 colon) of 8.74 µM and a TGI (HCT-116 colon) of 15.7 µM. For the same compound, the GI50 (T-47D breast) was 1.52 µM, the TGI (T-47D breast) was 11.3 µM and the GI50 (KM12 colon) was 6.46 µM. For the same compound, the TGI (KM12 colon) was 13.8 µM, the GI50 (A549 NSCLC) was 8.13 µM and the TGI (A549 NSCLC) was 16.8 µM. For the same compound, the GI50 (NCI-H460 lung) was 13 µM, the TGI (NCI-H460 lung) was 35.2 µM and the GI50 (HCC-2998 colon) was 6.41 µM. For the same compound, the TGI (HCC-2998 colon) was 12.7 µM, the GI50 (OVCAR-8 ovarian) was 9.2 µM and the TGI (OVCAR-8 ovarian) was 20.9 µM. The GI50 (SF-268 CNS) was 8.09 µM, the TGI (SF-268 CNS) was 16.7 µM and the GI50 (ACHN renal) was 9.16 µM. It also gave a TGI (ACHN renal) of 18.9 µM, a GI50 (HCT-15 colon) of 11.2 µM and a TGI (HCT-15 colon) of 34.4 µM. For the same compound, the GI50 (SF-539 CNS) was 9.62 µM, the TGI (SF-539 CNS) was 17.5 µM and the GI50 (UACC-257 melanoma) was 10.4 µM. It also gave a TGI (UACC-257 melanoma) of 19.2 µM, a GI50 (COLO 205 colon) of 6 µM and a TGI (COLO 205 colon) of 13 µM. For the same compound, the GI50 (SK-OV-3 ovarian) was 8.15 µM, the TGI (SK-OV-3 ovarian) was 16 µM and the GI50 (K-562 leukemia) was 13.6 µM. The TGI (K-562 leukemia) was over 50 µM, the GI50 (EKVX NSCLC) was 8.02 µM and the TGI (EKVX NSCLC) was 15.9 µM. For the same compound, the GI50 (LOX IMVI melanoma) was 5.49 µM, the TGI (LOX IMVI melanoma) was 14.3 µM and the GI50 (UACC-62 melanoma) was 8.1 µM. For the same compound, the TGI (UACC-62 melanoma) was 18.3 µM, the GI50 (OVCAR-3 ovarian) was 5.92 µM and the TGI (OVCAR-3 ovarian) was 12.1 µM. It also gave a GI50 (NCI-H23 lung) of 8.02 µM, a TGI (NCI-H23 lung) of 14.9 µM and a GI50 (MDA-MB-231 breast) of 9.1 µM. It also gave a TGI (MDA-MB-231 breast) of 24.7 µM, a GI50 (U251 CNS) of 8.66 µM and a TGI (U251 CNS) of 16.2 µM.

OC(C(=Nc1ccccc1)c1ccccc1)c1ccccc1 (configuration not stated) gave a TGI (BT-549 breast) of 9.51 µM, a TGI (HOP-62 NSCLC) of 39.8 µM and a TGI (786-0 renal) of 41.9 µM. The TGI (HOP-92 NSCLC) was 21 µM, the TGI (MOLT-4 leukemia) was 55.1 µM and the TGI (HL-60(TB) leukemia) was 56.1 µM. For the same compound, the TGI (NCI-H226 lung) was 34.1 µM, the TGI (SK-MEL-28 melanoma) was 15.2 µM and the TGI (SN12C renal) was 25.3 µM. For the same compound, the TGI (SK-MEL-5 melanoma) was 5.87 µM, the TGI (TK-10 renal) was 9.53 µM and the TGI (SR leukemia) was 10.7 µM. For the same compound, the TGI (UO-31 renal) was 39.8 µM, the TGI (SNB-19 CNS) was 31.6 µM and the TGI (NCI-H522 lung) was 18.9 µM. It also gave a TGI (RXF 393 renal) of 26.1 µM, a TGI (HS 578T breast) of 7.11 µM and a TGI (M14 melanoma) of 39.1 µM. It also gave a TGI (OVCAR-4 ovarian) of 51.8 µM, a TGI (IGROV1 ovarian) of 51.7 µM and a TGI (SF-295 CNS) of 26.3 µM. It also gave a TGI (HT29 colon) of 25.6 µM, a TGI (NCI/ADR-RES ovarian) of 65.7 µM and a TGI (SW-620 colon) of 66.5 µM. For the same compound, the TGI (CAKI-1 renal) was 30.3 µM, the TGI (DU-145 prostate) was 21.7 µM and the TGI (SK-MEL-2 melanoma) was 6.47 µM. The TGI (SNB-75 CNS) was 25.4 µM, the TGI (MALME-3M melanoma) was 7.01 µM and the TGI (MCF7 breast) was 45.4 µM. The TGI (MDA-MB-435) was 11.8 µM, the TGI (CCRF-CEM leukemia) was 27.9 µM and the TGI (RPMI-8226 leukemia) was 71.1 µM. For the same compound, the TGI (OVCAR-5 ovarian) was 82.3 µM, the TGI (HCT-116 colon) was 31.8 µM and the TGI (T-47D breast) was over 100 µM. The TGI (KM12 colon) was 10.4 µM, the TGI (A549 NSCLC) was 33.6 µM and the TGI (NCI-H460 lung) was 34.3 µM. It also gave a TGI (SF-268 CNS) of 17.4 µM, a TGI (ACHN renal) of 31.5 µM and a TGI (HCT-15 colon) of over 100 µM. The TGI (SF-539 CNS) was 25.3 µM, the TGI (UACC-257 melanoma) was 5.56 µM and the TGI (A498 renal) was 33.6 µM. For the same compound, the TGI (COLO 205 colon) was 20.9 µM, the TGI (SK-OV-3 ovarian) was 55.8 µM and the TGI (K-562 leukemia) was over 100 µM. For the same compound, the TGI (EKVX NSCLC) was 9.35 µM, the TGI (LOX IMVI melanoma) was 38.2 µM and the TGI (UACC-62 melanoma) was 15 µM. It also gave a TGI (OVCAR-3 ovarian) of 14.3 µM, a TGI (NCI-H23 lung) of 40.4 µM and a TGI (MDA-MB-231 breast) of 39.3 µM. The TGI (U251 CNS) was 15.6 µM.
